Test results reported in patent US9901577B2, “Oxoquinazolinyl-butanamide derivatives” (MERCK PATENT GMBH, priority 2013, dated 2018).
Read-outs that look alike come from different tables or passages of the source.

What was measured:
TNKS2 = target: T1, TNKS2 (Homo sapiens, UniProt Q9H2K2); assay: TNKS2 activity ELISA (autoparsylation assay); assay type: biochemical
T1 construct: GST-tagged Tnks-2 (873-1166 aa, prepared in-house); made in house
Protocol: (§1) Description of the TNKS1 and TNKS2 ELISA Assay
(§2) Biochemical Activity Testing of TNKS 1 and 2: Activity ELISA (Autoparsylation Assay)
(§3) For analysis of autoparsylation activity of TNKS 1 and 2 an activity ELISA iss performed: In the first step GST tagged TNKS is captured on a Glutathione coated plate. Then the activity assay with biotinylated NAD is performed in the absence/presence of the compounds. During the enzymatic reaction GST tagged TNKS transfers biotinylated ADP-ribose to itself from biotinylated NAD as co-substrate. For the detection streptavidin-HRP conjugate is added that binds to the biotinylated TNKS and is thereby captured to the plates. The amount of biotinylated resp. autoparsylated TNKS is detected with a luminescence substrate for HRP. The level of the luminescence signal correlates directly with the amount of autoparsylated TNKS and therefore with activity of TNKS.
(§4) The activity ELISA is performed in 384 well Glutathione coated microtiter plates (Express capture Glutathione coated plate, Biocat, Heidelberg, Germany). The plates are pre-equilibrated with PBS. […] The plates are washed 3 times with PBS-Tween-20. The wells are blocked by incubation at room temperature for 20 minutes with 50 μl blocking buffer (PBS, 0.05% Tween-20, 0.5% BSA). Afterwards the plates are washed 3 times with PBS-Tween-20. […] The reaction is stopped by 3 times washing with PBS-Tween-20. For the detection 50 μl of 20 ng/μl Streptavidin, HRP conjugate (MoBiTec, Göttingen, Germany) in PBS/0.05% Tween-20/0.01% BSA are added and the plates are incubated for 30 minutes at room temperature. After three times washing with PBS-Tween-20 50 μl of SuperSignal ELISA Femto Maximum sensitivity substrate solution (ThermoFisherScientific (Pierce), Bonn, Germany) are added. Following a 1 minute incubation at room temperature luminescence signals are measured with an Envision multimode reader (Perkin Elmer LAS Germany GmbH) at 700 nm. The full value used is the inhibitor-free reaction. […] The inhibitory values (IC50) are determined using either the program Symyx Assay Explorer® or Condosseo® from GeneData.

TNKS1 = target: T2, TNKS1 (Homo sapiens, UniProt O95271); assay: TNKS1 activity ELISA (autoparsylation assay); assay type: biochemical
T2 construct: GST-tagged Tnks-1 (1023-1327 aa, prepared in-house); made in house
Protocol: as §1, §2, §3, §4

Tankyrase [1] = tested on: T3, Tankyrase; assay: Measurement of cellular inhibition of Tankyrase (Axin2 level in DLD1 cells, Luminex based assay); assay type: cell-based; conditions: read-out: EC50 [M] TNKS cellular assay; DLD1 cells, Axin2 increase, 24 hours
T3 construct: TNKS cellular assay; other: DLD1 cells, Axin2 increase, 24 hours
Protocol: (§5) Measurement of Cellular Inhibition of Tankyrase
(§6) Cells of the colon carcinoma cell line DLD1 are plated in 96 well plates with 1.5×10^4 cells per well. Next day, cells are treated with a serial dilution of test compound in seven steps as triplicates with a final DMSO concentration of 0.3%. […] The amount of isolated Axin2 protein is determined in a Luminex^200 machine (Luminex Corporation) according to the manufacturer's instruction by counting 100 events per well. […] As controls cells are treated with solvent alone (neutral control) and with a Tankyrase reference inhibitor IWR-2 (3E-06 M) which refers as control for maximum increase of Axin2. For analysis, the obtained data are normalized against the untreated solvent control and fitted for determination of the EC50 values using the Assay Explorer software (Accelrys).

PARP-1 = target: T4, PARP-1 (Homo sapiens, UniProt P09874); assay: PARP-1 autoparsylation assay (HTRF); assay type: biochemical; conditions: His-tagged Parp-1, autoparsylation
T4 construct: purchased Enzo Life Sciences GmbH, Lörrach, Germany

DLD-1-cancer cells = conditions: Huang et al., 2009; cited from earlier work
β-catenin = conditions: by increasing the levels of AXIN1 and AXIN2 proteins; cited from earlier work
Tankyrase [2] = assay: Measurement of cellular inhibition of Tankyrase (Axin2 level in DLD1 cells, Luminex based assay); assay type: cell-based; conditions: for EC50: prior art compounds
Protocol: as §5, §6

[3] = GST-tagged Tnks-2, read-out: IC50 [M] TNKS2 ELISA
[4] = GST-tagged Tnks-1, read-out: IC50 [M] TNKS1 ELISA
[5] = prior art compounds, read-out: IC50 (TNKS1)

T1 sequence (Q9H2K2 873-1166): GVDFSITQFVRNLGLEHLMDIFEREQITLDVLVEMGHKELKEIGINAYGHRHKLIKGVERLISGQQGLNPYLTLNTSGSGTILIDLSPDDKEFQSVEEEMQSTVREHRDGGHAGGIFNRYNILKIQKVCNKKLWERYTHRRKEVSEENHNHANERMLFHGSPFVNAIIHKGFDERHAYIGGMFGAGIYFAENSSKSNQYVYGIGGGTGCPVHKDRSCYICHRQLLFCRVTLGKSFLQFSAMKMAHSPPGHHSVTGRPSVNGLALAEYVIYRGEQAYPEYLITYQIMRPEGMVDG
T4 sequence (P09874 whole entry): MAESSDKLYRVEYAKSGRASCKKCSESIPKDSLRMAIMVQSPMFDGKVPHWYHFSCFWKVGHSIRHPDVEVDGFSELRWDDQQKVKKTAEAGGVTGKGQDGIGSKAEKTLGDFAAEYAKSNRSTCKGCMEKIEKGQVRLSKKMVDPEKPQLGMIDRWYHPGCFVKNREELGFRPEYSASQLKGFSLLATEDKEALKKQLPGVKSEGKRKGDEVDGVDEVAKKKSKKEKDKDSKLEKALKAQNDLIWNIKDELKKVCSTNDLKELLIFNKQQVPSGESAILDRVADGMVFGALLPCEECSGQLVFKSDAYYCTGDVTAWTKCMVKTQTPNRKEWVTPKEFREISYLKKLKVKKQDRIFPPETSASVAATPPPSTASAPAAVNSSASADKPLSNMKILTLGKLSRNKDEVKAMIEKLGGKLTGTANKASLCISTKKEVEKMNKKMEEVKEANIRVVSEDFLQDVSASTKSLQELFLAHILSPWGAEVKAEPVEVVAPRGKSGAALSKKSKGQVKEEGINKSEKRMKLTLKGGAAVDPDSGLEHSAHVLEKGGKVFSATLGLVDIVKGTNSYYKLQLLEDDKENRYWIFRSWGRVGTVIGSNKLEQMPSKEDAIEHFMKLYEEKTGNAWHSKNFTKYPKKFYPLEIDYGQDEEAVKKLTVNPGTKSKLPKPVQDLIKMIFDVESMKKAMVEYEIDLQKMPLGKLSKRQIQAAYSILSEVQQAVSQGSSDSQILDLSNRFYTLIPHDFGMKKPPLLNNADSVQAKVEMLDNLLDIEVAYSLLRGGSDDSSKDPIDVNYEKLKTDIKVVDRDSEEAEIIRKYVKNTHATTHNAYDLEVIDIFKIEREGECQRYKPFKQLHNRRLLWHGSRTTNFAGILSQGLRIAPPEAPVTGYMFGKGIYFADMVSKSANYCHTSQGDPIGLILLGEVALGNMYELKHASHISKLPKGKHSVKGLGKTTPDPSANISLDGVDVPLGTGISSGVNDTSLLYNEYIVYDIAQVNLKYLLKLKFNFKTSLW
T2 sequence (O95271 1023-1327): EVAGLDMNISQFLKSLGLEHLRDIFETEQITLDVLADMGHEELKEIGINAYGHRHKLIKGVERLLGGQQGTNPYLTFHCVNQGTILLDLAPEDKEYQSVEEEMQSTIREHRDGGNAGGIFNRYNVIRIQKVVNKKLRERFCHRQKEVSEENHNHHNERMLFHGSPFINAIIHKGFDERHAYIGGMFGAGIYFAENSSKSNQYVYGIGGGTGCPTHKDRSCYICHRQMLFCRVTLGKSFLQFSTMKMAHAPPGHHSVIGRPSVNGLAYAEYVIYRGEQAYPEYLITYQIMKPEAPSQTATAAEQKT

Structure (SMILES) | IC50 (TNKS2; [3]) [M] | IC50 (TNKS1; [4]) [M] | EC50 (Tankyrase [1]) [M] | IC50 (PARP-1) [nM] | also measured
N#Cc1cc(C2CCN(C(=O)CCCc3nc4ccc(F)cc4c(=O)[nH]3)CC2)cnc1N [Compound A31, 6-Amino-1′-[4-(6-fluoro-4-oxo-3,4-dihydro-quinazolin-2-yl)-butyryl]-1′,2′,3′,4′,5′,6′-hexahydro-[3,4]bipyridinyl-5-carbonitrile] | 9.5e-10 | 2.1e-09 | 2.9e-09 | 1400 | –
Nc1ncc(C2CCN(C(=O)CCCc3nc4ccc(F)cc4c(=O)[nH]3)CC2)cc1-c1ncccn1 [Compound A32, 2-[4-(6-Amino-5-pyrimidin-2-yl-3′,4′,5′,6′-tetrahydro-2′H-[3,4]bipyridinyl-1′-yl)-4-oxo-butyl]-6-fluoro-3H-quinazolin-4-one] | 3.4e-10 | 3.2e-10 | 2.3e-09 | 600 | –
COc1ccc(C(=O)C2CCN(C(=O)CCCc3nc4c(F)cccc4c(=O)[nH]3)CC2)cn1 [Compound A33, 8-Fluoro-2-{4-[4-(6-methoxy-pyridine-3-carbonyl)-piperidin-1-yl]-4-oxo-butyl}-3H-quinazolin-4-one] | 5.2e-10 | 1.3e-09 | 1.3e-08 | 5000 | –
N#Cc1cc(C2CCN(C(=O)CCCc3nc4c(F)cccc4c(=O)[nH]3)CC2)cnc1N [Compound A34, 6-Amino-1′-[4-(8-fluoro-4-oxo-3,4-dihydro-quinazolin-2-yl)-butyryl]-1′,2′,3′,4′,5′,6′-hexahydro-[3,4]bipyridinyl-5-carbonitrile] | 1.6e-09 | 3.3e-09 | 3.4e-08 | 2700 | –
Nc1ncc(C2CCN(C(=O)CCCc3nc4c(F)cccc4c(=O)[nH]3)CC2)cc1-c1ncccn1 [Compound A35, 2-[4-(6-Amino-5-pyrimidin-2-yl-3′,4′,5′,6′-tetrahydro-2′H-[3,4]bipyridinyl-1′-yl)-4-oxo-butyl]-8-fluoro-3H-quinazolin-4-one] | 1.6e-10 | 4.9e-10 | 1.8e-09 | 1400 | –
N#Cc1cc(C2CCN(C(=O)CCCc3nc4ccccc4c(=O)[nH]3)CC2)cnc1N [Compound A36, 6-Amino-1′-[4-(4-oxo-3,4-dihydro-quinazolin-2-yl)-butyryl]-1′,2′,3′,4′,5′,6-hexahydro-[3,4]bipyridinyl-5-carbonitrile] | – | – | 2e-08 | 1100 | IC50 (TNKS2): 1.1e-09 M; IC50 (TNKS1): 1.9e-09 M
Cn1cc(C(=O)C2CCN(C(=O)CCCc3nc4ccccc4c(=O)[nH]3)CC2)cn1 [Compound A41, 2-{4-[4-(1-Methyl-1H-pyrazole-4-carbonyl)-piperidin-1-yl]-4-oxo-butyl}-3H-quinazolin-4-one] | 3.3e-10 | 5.8e-10 | 9e-09 | 2100 | –
Oc1nc(-c2ccc(C(F)(F)F)cc2)nc2c1CSCC2 [XAV939] | – | – | – | – | growth of DLD-1-cancer cells (DLD-1-cancer cells): inhibits growth; Wnt-stimulated accumulation of β-catenin (β-catenin): blocked Wnt-stimulated accumulation of β-catenin
O=c1[nH]c(-c2ccc3c(c2)OCO3)nc2ccccc12 [reference compound] | – | – | – | – | IC50 (TNKS2; prior art compounds, read-out: IC50 (TNKS2)): 6e-07 M; IC50 (TNKS1; [5]): 5.9e-07 M; cellular assay: effect (Tankyrase [2]; at 30 μM, prior art compound): no effect
COc1ccc(C(=O)C2CCN(CC(=O)N(Cc3nc4c(c(=O)[nH]3)COCC4)CC3CC3)CC2)cc1 [reference compound] | – | – | – | – | IC50 (TNKS1; [5]): 2e-09 M; EC50 (Tankyrase [2]): 35 nM
COc1ccccc1NC(=O)c1ccc(NC(=O)CCc2nc3ccccc3c(=O)[nH]2)cc1 [reference compound] | – | – | – | – | IC50 (TNKS1; [5]): 7.4e-09 M; EC50 (Tankyrase [2]): 320 nM
